The text below walks through data of patent US20180371408A1, “CELL CULTURES AND METHODS OF USE” (priority 2017, published 2018).

Read-outs that look alike come from different tables or passages of the source.

Data set [1] relates to Spermatogonial cells (C18-4). Nature of the data set: cells. Format: cell-based, mouse. The following applies: Spermatogonial Cell, highest concentration tested assigned as IC50 where viability did not decrease 50%, read-out: IC50.
Data set [2] has as its system Leydig cells (TM3). As to the kind of experiment: cells. It counts as cell-based, mouse. The settings on record: Leydig Cell, highest concentration tested assigned as IC50 where viability did not decrease 50%, read-out: IC50.
Data set [3] deals with Sertoli cells (TM4). Nature of the data set: cells. It counts as cell-based, mouse. The following applies: Sertoli Cell, highest concentration tested assigned as IC50 where viability did not decrease 50%, read-out: IC50.
In data set [4] the test system is testicular co-culture (spermatogonial, Sertoli, Leydig cells). As to the kind of experiment: Multi-parametric high-content assay of the co-culture treated with cadmium. The following applies: 0.05, 0.25, 0.50 and 1.0 μM for 48 h. It counts as cell-based, mouse. An excerpt:
All cultures were viewed with an Olympus inverted microscope equipped with phase-contrast optics (Olympus, Tokyo, Japan) at intervals during the culture to assess their general appearance. Images were captured and digitized with a Nikon Camera. To further examine the morphology of the cultured cells, a multi-parametric high-content analysis (HCA) was applied to quantify the F-actin cytoskeleton, nuclear shape, and cell proliferation. The spermatogonial cells were identified using typical markers of mouse germ cell nuclear antigen (GCNA1) (Developmental Studies Hybridoma Bank, http://dshb.biology.uiowa.edu, Iowa, IA)(Enders and May, 1994). Leydig cells were identified using steroidogenic acute regulatory protein (StAR)(Clark et al., 1994) (kindly gifted by Dr. Douglas M. Stocco, Texas Tech University). Sertoli cells were stained with SOX9 (Developmental Studies Hybridoma Bank, Iowa, IA). After culture for 48 and 72 h, cells were washed with phosphate buffered saline (PBS), fixed with 4% formaldehyde for 20 min at room temperature, and then washed with PBS three times. […] The multichannel images were automatically captured using an Arrayscan VTI HCS reader with a Studio 2.0 Target Activation BioApplication module (Thermo Scientific, MA). […]
Single-cell based High-content Analysis (HCA) provided multi-parameter phenotypic profiling characterization, including number, nuclear area, shape, and intensity, as previously reported (Liang et al., 2017). […] With 36 fields of each well, at least 4000 cells were analyzed per well, and single-cell based data for each channel were exported for further statistical analysis. […]
For quantitative analysis of three-dimensional F-actin cytoskeleton, we applied the Cytoskeletal Re-arrangement Assay in the Morphology Explorer Bioapplication (ThermoScientific, MA) to determine the number, dimensions and alignment—as well as the texture—of actin fibers based on the manufacturer's guideline (ThermoFisher, 2010). […]

In data set [5] the test system is testicular co-culture: spermatogonial cells (C18-4), Sertoli cells (TM4), Leydig cells (TM3). The settings on record: for IC50: Co-culture, highest concentration tested assigned as IC50 where viability did not decrease 50%.
Data set [6] has as its system reproductive system. The settings on record: based on ToxCast database and literature search; cited from earlier work.
For data set [7], the system named is reproductive system. The following applies: in rats; cited from earlier work.

One may read the IC50 as the concentration that inhibits the measured activity by half. As to `[Cl][Cd][Cl]` [Cd, Cadmium chloride], the IC50 in data set [1] (24 h) was 2.1 µM; in data set [1] (48 h) it was 2.1 µM; in data set [2] (24 h) it was 16 µM; in data set [2] (48 h) it was 8.5 µM; in data set [3] (24 h), 14.6 µM; in data set [3] (48 h), 9.5 µM. Also, the IC50 in data set [5] (24 h) was determined as 11.3 µM; in data set [5] (48 h), 4.2 µM. The F-actin cytoskeletal structure result in data set [4] is given as “destruction of cytoskeletal structure”. The “cell proliferation (cell number)” value in data set [4] was “decrease of cell proliferation (cell number)”. Also, the γH2AX foci formation result in data set [4] (dose-dependent) is reported as “significantly induced phosphorylation of γH2AX foci formation”. Moreover, the “effect on cell viability (NR uptake), in words” value in data set [5] (co-culture, 48 h treatment, FIG. 6) is on record as “most toxic”. Also, the “In vivo Reproductive Toxicity” value in data set [6] was “+”. The “reproductive LOAEL” value in data set [7] is 0.088 mg/kg/day.
